As a reminder, the EC50 is the concentration giving half of the maximal effect.

A short description of data set [1]: Microsomal stability assay. The data set is classed as in vitro ADME, rat. The settings on record: 10 μM, rat liver microsomes, 37 °C; 41 n = 3, 7-EC n = 1.
Data set [2] addresses T1, human FXR:retinoid X receptor (RXR) heterodimer (Homo sapiens, UniProt Q96RI1).
T1 construct: pcDNA3-hFXR[32] and pSG5-hRXR[33] served for receptor overexpression in the full-length FXR assay; expressed in transfected cells; host or cells: HeLa
Put plainly: Full-length FXR reporter gene assay (BSEP response element) in HeLa cells. Format: cell-based. The arrangement: Emax: dose or concentration left out as unconfirmed. The settings on record: HeLa; for Emax: read-out: max. rel. act. FXR; for EC50: mean ± SEM, n = 3, read-out: EC50 [μM] FXR. Background: A reporter such as luciferase makes a cellular process visible.

The target in data set [3] is T2, human PPARγ ligand-binding domain (Gal4 chimera) (Homo sapiens, UniProt P37231).
T2 construct: coding for the hinge region and LBD of the canonical isoform of the respective nuclear receptor; expressed in transfected cells; host or cells: HEK293T
T2 sequence (P37231 238-503 limits assumed): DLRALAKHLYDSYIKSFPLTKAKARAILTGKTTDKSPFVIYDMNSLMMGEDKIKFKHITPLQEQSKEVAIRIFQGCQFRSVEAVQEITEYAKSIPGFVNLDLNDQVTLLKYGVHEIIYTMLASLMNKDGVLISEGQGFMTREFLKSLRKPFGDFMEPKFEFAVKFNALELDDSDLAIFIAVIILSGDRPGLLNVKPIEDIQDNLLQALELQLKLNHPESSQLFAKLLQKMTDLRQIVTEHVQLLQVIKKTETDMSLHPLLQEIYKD
Put plainly: Gal4 hybrid reporter gene assay, PPARγ. The arrangement: Emax: dose or concentration left out as unconfirmed. The settings on record: for EC50: HEK293T, mean ± SEM, n = 3, read-out: EC50 [μM] PPARγ; for Emax: read-out: max. rel. act. PPARγ. The data set is classed as cell-based.

In data set [4] the target is T3, human PPARα ligand-binding domain (Gal4 chimera) (Homo sapiens, UniProt Q07869).
T3 construct: coding for the hinge region and LBD of the canonical isoform of the respective nuclear receptor; expressed in transfected cells; host or cells: HEK293T
T3 sequence (Q07869 239-466 limits assumed): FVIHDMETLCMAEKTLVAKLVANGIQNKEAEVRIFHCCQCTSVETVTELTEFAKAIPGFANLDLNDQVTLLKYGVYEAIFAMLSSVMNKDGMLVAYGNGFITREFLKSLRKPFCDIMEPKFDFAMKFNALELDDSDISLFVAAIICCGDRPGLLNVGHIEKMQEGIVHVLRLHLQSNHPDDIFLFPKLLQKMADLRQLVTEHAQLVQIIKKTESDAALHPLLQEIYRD
Put plainly: Gal4 hybrid reporter gene assay, PPARα. The data set is classed as cell-based. The following applies: EC50 [μM] PPARα, HEK293T; mean ± SEM, n = 3.

For data set [5], the target named is T4, human PPARδ ligand-binding domain (Gal4 chimera) (Homo sapiens, UniProt Q03181).
T4 construct: coding for the hinge region and LBD of the canonical isoform of the respective nuclear receptor; expressed in transfected cells; host or cells: HEK293T
T4 sequence (Q03181 211-439 limits assumed): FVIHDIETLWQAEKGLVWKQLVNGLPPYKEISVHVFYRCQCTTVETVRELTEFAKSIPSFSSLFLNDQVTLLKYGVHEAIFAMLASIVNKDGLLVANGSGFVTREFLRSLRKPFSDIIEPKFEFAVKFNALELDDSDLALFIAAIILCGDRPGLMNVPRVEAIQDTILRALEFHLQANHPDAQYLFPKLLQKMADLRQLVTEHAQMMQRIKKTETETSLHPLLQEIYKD
Put plainly: Gal4 hybrid reporter gene assay, PPARδ. The data set is classed as cell-based. The arrangement: Emax: dose or concentration left out as unconfirmed. The settings on record: for EC50: HEK293T, mean ± SEM, n = 3, read-out: EC50 [μM] PPARδ; for Emax: read-out: max. rel. act. PPARδ.

T1 sequence (P19793 whole entry): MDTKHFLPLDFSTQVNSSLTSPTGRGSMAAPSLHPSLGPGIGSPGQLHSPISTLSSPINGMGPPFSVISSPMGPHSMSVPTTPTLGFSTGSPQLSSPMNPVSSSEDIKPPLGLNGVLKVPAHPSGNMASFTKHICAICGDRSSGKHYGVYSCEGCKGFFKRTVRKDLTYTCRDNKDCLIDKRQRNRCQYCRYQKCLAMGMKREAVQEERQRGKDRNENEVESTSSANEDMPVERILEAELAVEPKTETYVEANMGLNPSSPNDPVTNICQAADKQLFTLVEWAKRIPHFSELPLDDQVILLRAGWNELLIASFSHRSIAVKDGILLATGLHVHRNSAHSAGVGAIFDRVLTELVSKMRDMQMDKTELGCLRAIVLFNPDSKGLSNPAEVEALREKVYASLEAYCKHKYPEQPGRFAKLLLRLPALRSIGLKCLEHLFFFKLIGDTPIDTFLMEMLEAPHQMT
T1 sequence (Q96RI1 whole entry): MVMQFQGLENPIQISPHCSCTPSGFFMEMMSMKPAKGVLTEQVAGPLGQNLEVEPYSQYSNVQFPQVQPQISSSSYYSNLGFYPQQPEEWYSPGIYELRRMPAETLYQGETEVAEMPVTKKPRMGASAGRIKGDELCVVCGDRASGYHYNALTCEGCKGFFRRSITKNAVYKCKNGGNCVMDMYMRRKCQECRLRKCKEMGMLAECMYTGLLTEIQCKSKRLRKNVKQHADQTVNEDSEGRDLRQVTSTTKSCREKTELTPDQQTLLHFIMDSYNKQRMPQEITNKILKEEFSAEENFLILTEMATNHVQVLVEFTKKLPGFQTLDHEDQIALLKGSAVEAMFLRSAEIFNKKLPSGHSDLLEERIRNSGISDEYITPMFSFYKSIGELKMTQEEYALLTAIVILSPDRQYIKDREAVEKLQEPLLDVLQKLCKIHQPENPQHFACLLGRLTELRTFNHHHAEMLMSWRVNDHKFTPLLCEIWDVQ

For `CCOc1ccc2ccc(=O)oc2c1` [7-EC, 7-Ethoxycoumarin, reference compound], in data set [1], the “percent of remaining compound, 15 min” value worked out at 87%; the “percent of remaining compound, 30 min” value turned out to be 75%; the “percent of remaining compound, 60 min” value is listed as 55%.
Turning to `O=C(O)CCc1cccc(NC(=O)c2ccccc2NC(=O)c2ccc(-c3cnco3)cc2)c1` [compound 38], the Emax was 53% in data set [2], 16% in data set [3] and 32% in data set [5]. In addition, the concentration giving a half-maximal response (EC50) in data set [2] is 15 ± 4 µM; in data set [3], 5.3 ± 0.2 µM; in data set [4], more than 30 µM; in data set [5] it was 12 ± 1 µM.
`O=C(O)CCc1cccc(NC(=O)c2ccccc2NC(=O)c2ccc(-n3ccnn3)cc2)c1` [compound 39]: the concentration giving a half-maximal response (EC50) in data set [2] was more than 10 µM; in data set [3], more than 30 µM; in data set [4] it was more than 10 µM; in data set [5], more than 10 µM.
For the compound `COc1ccc(C(=O)Nc2cccc(NCC(=O)O)c2)c(NC(=O)c2ccc(-c3ccoc3)cc2)c1` [compound 40, (3-[2-{4-(3-Furyl)benzamido}-4-methoxybenzamido]phenyl)glycine], the Emax in data set [2] was 43%; in data set [3] it was 9%; in data set [5] it was 54%. For the same compound, the EC50 in data set [2] is 0.29 ± 0.01 µM; in data set [3], 7.7 ± 0.5 µM; in data set [4], more than 30 µM; in data set [5], 1.6 ± 0.1 µM.

These data come from PMC9814779, “A triple farnesoid X receptor and peroxisome proliferator-activated receptor α/δ activator reverses hepatic fibrosis in diet-induced NASH in mice” (Communications Chemistry, 2020).
